What was measured:
[1] = target: T1, BRD4 bromo domain 1 [BRD4(1)] (Homo sapiens, UniProt O60885); test: BRD4(1)/acetylated peptide H4 binding assay (TR-FRET); conditions: inhibition of interaction between His6-tagged BRD4(1) (amino acids 67-152) and acetylated histone H4 peptide
T1 construct: N-terminally His6-tagged BRD4(1) (amino acids 67-152); made in house; host or cells: E. coli
Description: (§1) Protein-Protein Interaction Assay: BRD4/Acetylated Peptide H4 Binding Assay
1. Assay Description for BRD4 Bromo Domain 1 [BRD4(1)]
To assess the BRD4(1) binding strength of the substances described in this application, the ability thereof to inhibit the interaction between BRD4(1) and acetylated histone H4 in a dose-dependent manner was quantified.
(§2) For this purpose, a time-resolved fluorescence resonance energy transfer (TR-FRET) assay was used, which measures the binding between N-terminally His6-tagged BRD4(1) (amino acids 67-152) and a synthetic acetylated histone H4 (Ac-H4) peptide with sequence GRGK(Ac)GGK(Ac)GLGK(Ac)GGAK(Ac)RHGSGSK-biotin. The recombinant BRD4(1) protein produced in-house according to Filippakopoulos et al., Cell, 2012, 149:214-231 was expressed in E. coli and purified by means of (Ni-NTA) affinity and (Sephadex G-75) size exclusion chromatography. The Ac-H4 peptide can be purchased, for example, from Biosyntan (Berlin, Germany).
(§3) In the assay, typically 11 different concentrations of each substance (0.1 nM, 0.33 nM, 1.1 nM, 3.8 nM, 13 nM, 44 nM, 0.15 μM, 0.51 μM, 1.7 μM, 5.9 μM and 20 μM) were analysed as duplicates on the same microtitre plate. For this purpose, 100-fold concentrated solutions in DMSO were prepared by serial dilutions (1:3.4) of a 2 mM stock solution into a clear, 384-well microtitre plate (Greiner Bio-One, Frickenhausen, Germany). From this, 50 nl were transferred into a black test plate (Greiner Bio-One, Frickenhausen, Germany). The test was started by the addition of 2 μl of a 2.5-fold concentrated BRD4(1) solution (final concentration typically 10 nM in the 5 μl of reaction volume) in aqueous assay buffer [50 mM HEPES pH 7.5, 50 mM sodium chloride (NaCl), 0.25 mM CHAPS and 0.05% serum albumin (BSA)] to the substances in the test plate. This was followed by a 10-minute incubation step at 22° C. for the pre-equilibration of putative complexes between BRD4(1) and the substances.
(§4) The mixture was then incubated in the dark at 22° C. for one hour and then at 4° C. for at least 3 hours and for no longer than overnight. The formation of BRD4(1)/Ac-H4 complexes was determined by the measurement of the resonance energy transfer from the streptavidin-Eu cryptate to the anti-6His-XL665 antibody present in the reaction. For this purpose, the fluorescence emission was measured at 620 nm and 665 nm after excitation at 330-350 nm in a TR-FRET measuring instrument, for example a Rubystar or Pherastar (both from BMG Lab Technologies, Offenburg, Germany) or a Viewlux (Perkin-Elmer). The ratio of the emissions at 665 nm and at 622 nm was taken as an indicator of the amount of BRD4(1)/Ac-H4 complexes formed.
(§5) The data (ratios) obtained were normalized, with 0% inhibition corresponding to the mean from the measurements for a set of controls (typically 32 data points) in which all the reagents were present. In these, in place of test substances, 50 nl of DMSO (100%) were used. Inhibition of 100% corresponded to the mean from the measurements for a set of controls (typically 32 data points) in which all the reagents except BRD4(1) were present. The IC50 was determined by regression analysis based on a 4-parameter equation (minimum, maximum, IC50, Hill; Y=max+(min−max)/(1+(X/IC50)Hill).

[2] = target: T2, BRD4 bromo domain 2 [BRD4(2)] (Homo sapiens, UniProt O60885); test: BRD4(2)/acetylated peptide H4 binding assay (TR-FRET); conditions: inhibition of interaction between His6-tagged BRD4(2) (amino acids 357-445) and acetylated histone H4 peptide
T2 construct: N-terminally His6-tagged BRD4(2) (amino acids 357-445); made in house; host or cells: E. coli
Description: as §1
2. Assay Description for BRD4 Bromo Domain 2 [BRD4(2)]
To assess the BRD4(2) binding strength of the substances described in this application, the ability thereof to inhibit the interaction between BRD4(2) and acetylated histone H4 in a dose-dependent manner was quantified.
as §2, with “BRD4(2)” for “BRD4(1)”, “357-445)” for “67-152)”, “SGRGK(Ac)GGK(Ac)GLGK(Ac)GGAK(Ac)RHRKVLRDNGSGSK-biotin.” for “GRGK(Ac)GGK(Ac)GLGK(Ac)GGAK(Ac)RHGSGSK-biotin.”
as §3, with “concentrated BRD4(2)” for “concentrated BRD4(1)”, “typically 100” for “typically 10”, “chloride (NaCl); 50 mM potassium fluoride (KF);” for “chloride (NaCl),”, “between BRD4(2)” for “between BRD4(1)”
as §4, with “BRD4(2)/Ac-H4” for “BRD4(1)/Ac-H4”, “chelate” for “cryptate”
as §5, with “BRD4(2)” for “BRD4(1)”

SMILES	IC50 [1] [nM]	IC50 [2] [nM]
COc1cc(C(=O)N2CCN(C3CC3)CC2)ccc1Nc1ccc2c(n1)N(C1CCOCC1)[C@H](C)C(=O)N2C [Example 65, (3R)-6-({4-[(4-Cyclopropylpiperazin-1-yl)carbonyl]-2-methoxyphenyl}amino)-1,3-dimethyl-4-(tetrahydro-2H-pyran-4-yl)-3,4-dihydropyrido[2,3-b]pyrazin-2(1H)-one]	234	120
C[C@@H]1C(=O)N(C)c2ccc(Nc3ccc(C(=O)NC4CCC(N5CCC(F)(F)CC5)CC4)cc3)nc2N1C1CCCCC1 (stereo partly drawn) [Example 71, 4-{[(3R)-4-Cyclohexyl-1,3-dimethyl-2-oxo-1,2,3,4-tetrahydropyrido[2,3-b]pyrazin-6-l]amino}-N-[4-(4,4-difluoropiperidin-1-yl)cyclohexyl]benzamide]	961	445
COc1cc(C(=O)N2CC3(COC3)C2)ccc1Nc1ccc2c(n1)N(C1CCCCC1)[C@H](C)C(=O)N2C [Example 73, (3R)-4-Cyclohexyl-6-{[2-methoxy-4-(2-oxa-6-azaspiro[3.3]hept-6-ylcarbonyl)phenyl]amino}-1,3-dimethyl-3,4-dihydropyrido[2,3-b]pyrazin-2(1H)-one]	273	196
COc1cc(C(=O)N2CC3(CCS3(=O)=O)C2)ccc1Nc1ccc2c(n1)N(C1CCCCC1)[C@H](C)C(=O)N2C [Example 74, (3R)-4-Cyclohexyl-6-({4-[(1,1-dioxido-1-thia-6-azaspiro[3.3]hept-6-yl)carbonyl]-2-methoxyphenyl}amino)-1,3-dimethyl-3,4-dihydropyrido[2,3-b]pyrazin-2(1H)-one]	300	156
C[C@@H]1C(=O)N(C)c2ccc(Nc3ccc(C(=O)N4CCN(C(=O)OC(C)(C)C)CC4)cc3)nc2N1Cc1ccccc1 [Example 76, tert-Butyl 4-(4-{[(3R)-4-benzyl-1,3-dimethyl-2-oxo-1,2,3,4-tetrahydropyrido[2,3-b]pyrazin-6-yl]amino}benzoyl)piperazine-1-carboxylate]	840	273
COc1cc(C(=O)N2CC3(CCS3(=O)=O)C2)ccc1Nc1ccc2c(n1)N(C1CCCCCC1)[C@H](C)C(=O)N2C [Example 84, (3R)-4-Cycloheptyl-6-({4-[(1,1-dioxido-1-thia-6-azaspiro[3.3]hept-6-yl)carbonyl]-2-methoxyphenyl}amino)-1,3-dimethyl-3,4-dihydropyrido[2,3-b]pyrazin-2(1H)-one]	448	165
C[C@@H]1C(=O)N(C)c2ccc(Nc3ccc(C(=O)NC4CN(C)C4)cc3)nc2N1C1CCCCCC1 [Example 85, 4-{[(3R)-4-Cycloheptyl-1,3-dimethyl-2-oxo-1,2,3,4-tetrahydropyrido[2,3-b]pyrazin-6-yl]amino}-N-(1-methylazetidin-3-yl)benzamide]	186	98
CC(=O)N1CCC(NC(=O)c2ccc(Nc3ccc4c(n3)N(C3CCCCCC3)[C@H](C)C(=O)N4C)cc2)CC1 [Example 86, N-(1-Acetylpiperidin-4-yl)-4-{[(3R)-4-cycloheptyl-1,3-dimethyl-2-oxo-1,2,3,4-tetrahydropyrido[2,3-b]pyrazin-6-yl]amino}benzamide]	180	100
COc1cc(C(=O)NC2CN(C)C2)ccc1Nc1ccc2c(n1)N(C1CCCCCC1)[C@H](C)C(=O)N2C [Example 87, 4-{[(3R)-4-Cycloheptyl-1,3-dimethyl-2-oxo-1,2,3,4-tetrahydropyrido[2,3-b]pyrazin-6-yl]amino}-3-methoxy-N-(1-methylazetidin-3-yl)benzamide]	216	75
COc1cc(C(=O)NC2CCN(C(C)=O)CC2)ccc1Nc1ccc2c(n1)N(C1CCCCCC1)[C@H](C)C(=O)N2C [Example 88, N-(1-Acetylpiperidin-4-yl)-4-{[(3R)-4-cycloheptyl-1,3-dimethyl-2-oxo-1,2,3,4-tetrahydropyrido[2,3-b]pyrazin-6-yl]amino}-3-methoxybenzamide]	339	146
C[C@@H]1C(=O)N(C)c2ccc(Nc3ccc(C(=O)NCCN4CCN(C)CC4)cc3)nc2N1C1CCCCCC1 [Example 89, 4-{[(3R)-4-Cycloheptyl-1,3-dimethyl-2-oxo-1,2,3,4-tetrahydropyrido[2,3-b]pyrazin-6-yl]amino}-N-{2-(4-methylpiperazin-1-yl)ethyl]benzamide]	185	93
C[C@@H]1C(=O)N(C)c2ccc(Nc3ccc(C(=O)NC4CCC(O)CC4)cc3)nc2N1C1CCCCCC1 (stereo partly drawn) [Example 90, 4-{[(3R)-4-Cycloheptyl-1,3-dimethyl-2-oxo-1,2,3,4-tetrahydropyrido[2,3-b]pyrazin-6-yl]amino}-N-(4-hydroxycyclohexyl)benz-amide]	341	208
CC(C)N1CCN(C(=O)c2ccc(Nc3ccc4c(n3)N(C3CCCCCC3)[C@H](C)C(=O)N4C)cc2)CC1 [Example 92, (3R)-4-Cylcoheptyl-1,3-dimethyl-6-[(4-{[4-(propan-2-yl)piperazin-1-yl]carbonyl}phenyl)amino]-3,4-dihydropyrido[2,3-b]pyrazin-2(1H)-one]	325	209
